Experiments:
[1] = rats (Graham and Li, 1973); cited from earlier work
[2] = target: Cytochrome P450 3A4 (CYP 3A4) (Homo sapiens, UniProt P08684); details: in vitro study (Stout and Cimino 2014); cited from earlier work
[3] = test system: Chronic Constriction Injury model of chronic neuropathic pain; experiment: Von Frey pain threshold in the Chronic Constriction Injury (sciatic nerve ligation) model; details: CCI rats
Description: Male Sprague Dawley rats underwent baseline measurement of pain threshold via Von Frey testing according to the study schema in FIG. 4. The following day, rats underwent surgical ligation of the sciatic nerve using the Chronic Constriction Injury model of chronic neuropathic pain. After 7 days to allow the development of chronic neuropathic pain, rats underwent repeat Von Frey testing to determine pain threshold and started oral treatment with CBD or saline (Table 2). After 7 days of CBD or saline, rats underwent pre-dosing pain threshold determination via Von Frey testing and then received either standard dose BUP, low dose BUP, CBD alone or low dose BUP plus CBD followed by repeat post-dose pain threshold determination via Von Frey testing (Table 3).

Chain of Cytochrome P450 3A4 (CYP 3A4) (P08684 whole entry, species assumed): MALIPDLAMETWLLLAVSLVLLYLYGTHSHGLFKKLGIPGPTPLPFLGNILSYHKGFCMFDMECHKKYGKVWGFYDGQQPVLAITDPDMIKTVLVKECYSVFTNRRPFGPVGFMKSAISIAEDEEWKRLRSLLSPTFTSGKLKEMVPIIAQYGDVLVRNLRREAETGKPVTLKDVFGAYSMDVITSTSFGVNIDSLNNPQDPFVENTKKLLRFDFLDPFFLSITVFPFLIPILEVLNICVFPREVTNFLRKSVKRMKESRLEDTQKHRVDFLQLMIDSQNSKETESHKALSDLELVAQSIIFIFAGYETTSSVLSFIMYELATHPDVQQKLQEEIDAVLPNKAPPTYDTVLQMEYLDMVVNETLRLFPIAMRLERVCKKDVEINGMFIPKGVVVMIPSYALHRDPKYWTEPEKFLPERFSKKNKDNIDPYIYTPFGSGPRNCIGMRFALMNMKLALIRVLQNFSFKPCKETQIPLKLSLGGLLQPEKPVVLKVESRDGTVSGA

## C=C(C)[C@@H]1CCC(C)=C[C@H]1c1c(O)cc(CCCCC)cc1O [CBD, cannabidiol]
[1]
  Effect on respiratory rate: did not reduce
[2]
  Inhibition of CYP 3A4: inhibits
[3]; CBD alone 7 mg/kg PO days 7-14, saline IV on day 14
  Mean pain threshold (g in Von Frey Testing), Day 14-1 hour Post Dose: 5.25 g
[3]; CBD alone 7 mg/kg PO days 7-14
  Pain threshold on day 14 compared to no BUP (Group 1): did not significantly increase
[3]; CBD alone group, after 7 days of CBD 7 mg/kg PO, before day 14 dosing
  Mean pain threshold (g in Von Frey Testing), Day 14 Pre-Dose: 5.50 g
